Here are results for 53 compounds from patent publication US20220306630A1, “AGONISTS OF ROR GAMMAt” (BRISTOL-MYERS SQUIBB COMPANY, priority 2019, published 2022).

In the assay the target is T1, RORgT (Homo sapiens, UniProt P51449).
T1 construct: Gal4 (fusion partner); expressed in transfected cells; host or cells: engineered Jurkat cells (Jurkat pEx/Gal/hRORγ CLBD/HYG pG5luc/blast)
T1 sequence (P51449 267-516): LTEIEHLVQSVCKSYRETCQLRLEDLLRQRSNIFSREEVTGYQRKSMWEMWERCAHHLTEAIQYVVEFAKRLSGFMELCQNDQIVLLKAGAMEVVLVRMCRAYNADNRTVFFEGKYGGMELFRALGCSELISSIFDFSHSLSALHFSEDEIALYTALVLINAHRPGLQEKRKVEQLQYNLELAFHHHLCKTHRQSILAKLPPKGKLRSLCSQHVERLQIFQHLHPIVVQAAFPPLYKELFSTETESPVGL
Briefly: RORgT Gal4 Luciferase Reporter Gene Assay. The conditions noted are these: engineered Jurkat cells overexpressing RORgT (LBD or full length) with Gal4 Luc reporter; 18 hours at 37° C.; 40 μM to 0.67 nM; read-out: RORg_GAL4 EC50. The format is cell-based. How it is done: The compound and the cells were incubated for 18 hours at 37° C. in a cell culture incubator. Cells were then lysed with 15 uL of Steady-Glo Luciferase Assay reagent (Promega EZ550), followed by centrifuging the assay plates at 1500 RPM for 1 minute. Subsequently, the plates were read on the Envision (PerkinElmer). The inhibition of constitutive activity of RORgT achieved by graded concentrations of compound was calculated as a percentage of the luminescence signal window reduction over a control compound.
On the technique in general: Reporter assays use an easily measured gene product as a stand-in for the process of interest.
As for `COc1ccc(Oc2c(Cl)ccc(C(=O)N(C)Cc3ccc(S(N)(=O)=O)cc3)c2Cl)cc1C(C)C` [Example 110], the EC50 (usually the concentration that produces a half-maximal response) amounted to 39 nM.

With `CCc1cc(Oc2c(Cl)cc(NC(=O)Cc3cccnc3)cc2Cl)ccc1OC` [Example 310], the EC50 stood at 293 nM.

With `COc1ncc(Oc2c(Cl)ccc(CNC(=O)C3CCN(S(N)(=O)=O)CC3)c2Cl)cc1C(C)C` [Example 147], the EC50 is 9.6 nM.

As for `COc1ncc(Oc2c(Cl)ccc(C(=O)N3CCC4(CC3)CN(S(C)(=O)=O)C4)c2Cl)cc1C(C)C` [Example 118], the EC50 was 61 nM.

Regarding `COc1ccc(Oc2c(Cl)ccc(C(=O)NCc3ccc(S(C)(=O)=O)cc3)c2Cl)cc1C(C)C` [Example 79], the EC50 is 18 nM.

Consider `CCS(=O)(=O)N1CCCC(CC(=O)Nc2cc(Cl)c(Oc3ccc(OC)c(C(C)C)c3)c(Cl)c2)C1` (centres unmarked) [Example 322], for which the EC50 is 126 nM.

In the case of `COc1ncc(Oc2c(Cl)cc(NC(=O)CC3CCN(S(C)(=O)=O)CC3)cc2Cl)cc1C1CC1` [Example 126], the EC50 was found to be 3.2 nM.

As for `COc1ccc(Oc2c(Cl)ccc(C(=O)NCc3ccc(=O)[nH]c3)c2Cl)cc1C(C)C` [Example 227, 2,4-dichloro-3-[4-methoxy-3-(propan-2-yl)phenoxy]-N-[(6-oxo-1,6-dihydropyridin-3-yl)methyl]benzamide], the EC50 worked out at 109 nM.

Turning to `COc1ccc(Oc2c(Cl)ccc(CNC(=O)CCC3CCN(S(C)(=O)=O)CC3)c2Cl)cc1C(C)C` [Example 224], the EC50 was 732 nM.

For the compound `CCS(=O)(=O)N1CCC(CC(=O)NCc2ccc(Cl)c(Oc3ccc(OC)c(C(C)C)c3)c2Cl)CC1` [Example 187], the EC50 came out at 522 nM.

For the compound `CC(c1cc(F)cc(Oc2c(Cl)ccc(C(=O)NCc3ccc(S(N)(=O)=O)cc3)c2Cl)c1)C(F)(F)F` (centres unmarked) [Example 355], the EC50 came to 16 nM.

Regarding `COc1ccc(Oc2c(Cl)ccc(C(=O)N(C)Cc3ccc(S(C)(=O)=O)cc3)c2Cl)cc1C(C)C` [Example 67], the EC50 was 116 nM.

As for `COc1ccc(Oc2c(Cl)ccc(C(=O)N3CCN(c4ccccc4)CC3)c2Cl)cc1C(C)C` [Example 214], the EC50 was determined as 434 nM.

With `CC(c1cc(F)cc(Oc2c(Cl)cc(NC(=O)CC3CCN(S(C)(=O)=O)CC3)cc2Cl)c1)C(F)(F)F` (centres unmarked) [Example 352], the EC50 was 15 nM.

With `COc1ccc(Oc2c(Cl)ccc(C(=O)NCC3CCN(S(=O)(=O)C4CC4)CC3)c2Cl)cc1C(C)C` [Example 92], the EC50 stood at 24 nM.

Regarding `CCS(=O)(=O)N[C@@H]1CCN(CC(=O)Nc2cc(Cl)c(Oc3ccc(OC)c(C(C)C)c3)c(Cl)c2)C1` [Example 159], the EC50 turned out to be 377 nM.

`CC1(c2cc(F)cc(Oc3c(Cl)ccc(C(=O)NCC4CCN(S(C)(=O)=O)CC4)c3Cl)c2)CC1` [Example 52, 2,4-dichloro-3-(3-fluoro-5-(1-methylcyclopropyl)phenoxy)-N-((1-(methylsulfonyl)piperidin-4-yl)methyl)benzamide]: the EC50 amounted to 28 nM.

As for `COc1ncc(Oc2c(Cl)ccc(NC(=O)Cc3ccc(S(C)(=O)=O)cc3)c2Cl)cc1C(C)C` [Example 23, N-(2,4-dichloro-3-((5-isopropyl-6-methoxypyridin-3-yl)oxy)phenyl)-2-(4-(methylsulfonyl)phenyl)acetamide], the EC50 turned out to be 49 nM.

With `COC(=O)c1cccc(C(=O)Nc2cc(Cl)c(Oc3ccc(OC)c(C(C)C)c3)c(Cl)c2)c1` [Example 288], the EC50 is 1270 nM.

With `COc1ccc(Oc2c(Cl)ccc(C(=O)NCC3CCN(S(N)(=O)=O)CC3)c2Cl)cc1C(C)C` [Example 96], the EC50 is 13 nM.

`CCS(=O)(=O)N1CCC(CNC(=O)c2ccc(Cl)c(Oc3ccc(OC)c(C(C)C)c3)c2Cl)CC1` [Example 94]: the EC50 was 26 nM.

Turning to `COc1ccc(Oc2c(Cl)cc(NC(=O)Cc3cccnc3S(C)(=O)=O)cc2Cl)cc1C(C)C` [Example 240], the EC50 is 99 nM.

For the compound `CC(C)c1cc(F)cc(Oc2c(Cl)ccc(C(=O)NC(C)c3ccc(S(C)(=O)=O)cc3)c2Cl)c1` (centres unmarked) [Example 136], the EC50 came to 13 nM.

Turning to `COc1ccc(Oc2c(Cl)ccc(C(=O)N(C)C)c2Cl)cc1C(C)C` [Example 78], the EC50 was 1050 nM.

On to `COc1ccc(Oc2c(Cl)ccc(NC(=O)Cc3ccc(S(N)(=O)=O)cc3)c2Cl)cc1C(C)C` [Example 61], for which the EC50 is 46 nM.

For `COC(=O)N1CCC(CNC(=O)c2ccc(Cl)c(Oc3ccc(OC)c(C(C)C)c3)c2Cl)CC1` [Example 111], the EC50 worked out at 936 nM.

`CCS(=O)(=O)N1CCC[C@H](CC(=O)Nc2cc(Cl)c(Oc3ccc(OC)c(C(C)C)c3)c(Cl)c2)C1` [Example 323]: the EC50 turned out to be 92 nM.

For `CC(C)c1cc(Oc2c(Cl)cc(NC(=O)CC3CCN(S(C)(=O)=O)CC3)cc2Cl)ccc1OC(F)(F)F` [Example 260], the EC50 worked out at 102 nM.

Turning to `COc1ccc(Oc2c(Cl)ccc(C(=O)NCCC3CCS(=O)(=O)CC3)c2Cl)cc1C(C)C` [Example 84], the EC50 was found to be 152 nM.

For the compound `COc1ccc(Oc2c(Cl)cc(NC(=O)CC3CCCN(S(C)(=O)=O)C3)cc2Cl)cc1C(C)C` (single isomer, unassigned) [Example 43, N-(3,5-dichloro-4-(3-isopropyl-4-methoxyphenoxy)phenyl)-2-(1-(methylsulfonyl)piperidin-3-yl)acetamide], the EC50 was 246 nM.

On to `CS(=O)(=O)N1CC2(CCN(C(=O)c3ccc(Cl)c(Oc4cc(F)cc(CCC(F)(F)F)c4)c3Cl)CC2)C1` [Example 327], for which the concentration for a half-maximal effect (EC50) worked out at 90 nM.

For `COc1ccc(Oc2c(Cl)ccc(C(=O)NCC3CCOCC3)c2Cl)cc1C(C)C` [Example 216], the EC50 was determined as 813 nM.

`COc1ccc(Oc2c(Cl)cc(NC(=O)Cc3ccc[n+]([O-])c3)cc2Cl)cc1C(C)C` [Example 237]: the EC50 is 235 nM.

Turning to `COc1ccc(Oc2c(Cl)cc(NC(=N)Cc3cccnc3)cc2Cl)cc1C(C)C` [Example 36, N-(3,5-dichloro-4-(3-isopropyl-4-methoxyphenoxy)phenyl)-2-(pyridin-3-yl)acetimidamide], the EC50 came to 455 nM.

Turning to `COc1ccc(Oc2c(Cl)cc(NS(=O)(=O)C(C)C)cc2Cl)cc1C(C)C` [Example 305], the EC50 was determined as 421 nM.

In the case of `COc1ccc(Oc2c(Cl)ccc(C(=O)NC[C@H]3CC[C@H](C(=O)O)CC3)c2Cl)cc1C(C)C` [Example 70], the EC50 is 141 nM.

For the compound `COc1ccc(Oc2c(Cl)cc(NC(=O)CCc3ccccc3)cc2Cl)cc1C(C)C` [Example 284], the EC50 was determined as 40000 nM.

Consider `COc1ccc(Oc2c(Cl)ccc(C(=O)N3CCN(C)CC3)c2Cl)cc1C(C)C` [Example 196], for which the EC50 came to 200 nM.

Regarding `C=C(C)c1cc(Oc2c(Cl)ccc(C(=O)NCC3CCN(S(C)(=O)=O)CC3)c2Cl)cnc1OC` [Example 71], the EC50 turned out to be 15 nM.

For `CCS(=O)(=O)N1CCC(CC(=O)Nc2cc(Cl)c(Oc3ccc(OC)c(C(C)C)c3)c(Cl)c2)CC1` [Example 319], the EC50 amounted to 33 nM.

Turning to `CCCCNC(=O)c1ccc(Cl)c(Oc2ccc(OC)c(C(C)C)c2)c1Cl` [Example 209], the EC50 turned out to be 659 nM.

For the compound `COc1ccc(Oc2c(Cl)ccc(CNC(=O)Cc3ccc(S(C)(=O)=O)cc3)c2Cl)cc1C(C)C` [Example 54], the EC50 is 34 nM.

`COc1ccc(Oc2c(Cl)ccc(CNC(=O)COC3CCN(S(C)(=O)=O)CC3)c2Cl)cc1C(C)C` [Example 188]: the EC50 was 383 nM.

For `COc1ccc(Oc2c(F)cc(NC(=O)Cc3cccnc3)cc2F)cc1C1CC1` [Example 39, N-(4-(3-cyclopropyl-4-methoxyphenoxy)-3,5-difluorophenyl)-2-(pyridin-3-yl)acetamide], the half-maximal effective concentration (EC50) came to 3130 nM.

As to `COc1ccc(Oc2c(Cl)cc(NC(=O)CC3CCN(S(C)(=O)=O)CC3)cc2Cl)cc1C(C)C` [Example 45, N-(3,5-dichloro-4-(3-isopropyl-4-methoxyphenoxy)phenyl)-2-(1-(methylsulfonyl)piperidin-4-yl)acetamide], the EC50 worked out at 18 nM.

With `CC1(c2cc(F)cc(Oc3c(Cl)cc(NC(=O)Cc4cccc(S(C)(=O)=O)c4)cc3Cl)c2)CC1` [Example 273], the EC50 was found to be 1.1 nM.

For the compound `COc1ccc(Oc2c(Cl)ccc(C#N)c2Cl)cc1C(C)C` [Example 18, 2,4-dichloro-3-(3-isopropyl-4-methoxyphenoxy)benzonitrile], the EC50 came to 1870 nM.

As to `CCS(=O)(=O)N1CC2(CN(CC(=O)Nc3cc(Cl)c(Oc4ccc(OC)c(C(C)C)c4)c(Cl)c3)C2)C1` [Example 190], the EC50 worked out at 989 nM.

Consider `COc1ccc(Oc2c(Cl)cc(NC(=O)CN3CCC[C@@H](NS(C)(=O)=O)C3)cc2Cl)cc1C(C)C` [Example 171], for which the EC50 stood at 2590 nM.

In the case of `CCS(=O)(=O)c1ccccc1CNC(=O)c1cc(Cl)c(Oc2ccc(OC)c(C(C)C)c2)c(Cl)c1` [Example 157], the EC50 is 939 nM.

As for `COc1ccc(Oc2c(Cl)ccc(CN(C)C(=O)c3ccc(S(C)(=O)=O)cc3)c2Cl)cc1C(C)C` [Example 22, N-(2,4-dichloro-3-(3-isopropyl-4-methoxyphenoxy)benzyl)-N-methyl-4-(methylsulfonyl)benzamide], the EC50 turned out to be 95 nM.

As to `CC(C)c1cc(F)cc(Oc2c(Cl)ccc(C(=O)N3CCC(S(C)(=O)=O)CC3)c2Cl)c1` [Example 264], the half-maximal effective concentration (EC50) came to 39 nM.

Consider `CC(C)c1cc(F)cc(Oc2c(Cl)ccc(C(=O)NCC3CCN(S(C)(=O)=O)CC3)c2Cl)c1` [Example 261], for which the EC50 came out at 14 nM.
